Measurements published in patent US6737383B1, “Herbicidal oxadiazolidines” (priority 1999, dated 2004).

Assays:
[1] = tested on: cocklebur; experiment: Test B pre/postemergence cocklebur; format: in vivo, Xanthium strumarium
In short: (§1)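 Response is a visual 0-to-10 score relative to untreated plants, where 0 means no effect and 10 means complete control, taken twelve to sixteen days after application. Treatments went onto soil at planting and onto foliage of 1- to 4-leaf plants, using a surfactant-containing non-phytotoxic solvent.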

[2] = tested on: sugar beet; experiment: Test B pre/postemergence sugar beet; format: in vivo, Beta vulgaris
In short: as §1

[3] = tested on: soybean; experiment: Test B pre/postemergence soybean; format: in vivo, Glycine max
In short: as §1

[4] = tested on: corn; experiment: Test B pre/postemergence corn; format: in vivo, Zea mays
In short: as §1

[5] = tested on: bedstraw; experiment: Test B pre/postemergence bedstraw; format: in vivo, Galium aparine
In short: as §1

[6] = tested on: wheat; experiment: Test B pre/postemergence wheat; format: in vivo, Triticum aestivum
In short: as §1

[7] = tested on: purple nutsedge; experiment: Test B pre/postemergence purple nutsedge; format: in vivo, Cyperus rotundus
In short: as §1

[8] = tested on: pigweed; experiment: Test B pre/postemergence pigweed; format: in vivo, Amaranthus retroflexus
In short: as §1

[9] = tested on: rape; experiment: Test B pre/postemergence rape; format: in vivo, Brassica napus
In short: as §1

[10] = tested on: velvetleaf; experiment: Test B pre/postemergence velvetleaf; format: in vivo, Abutilon theophrasti
In short: as §1

[11] = tested on: giant foxtail; experiment: Test B pre/postemergence giant foxtail; format: in vivo, Setaria faberii
In short: as §1

[12] = tested on: surinam grass; experiment: Test B pre/postemergence surinam grass; format: in vivo, Brachiaria decumbens
In short: as §1

[13] = tested on: crabgrass; experiment: Test B pre/postemergence crabgrass; format: in vivo, Digitaria sanguinalis
In short: as §1

[14] = tested on: wild oat; experiment: Test B pre/postemergence wild oat; format: in vivo, Avena fatua
In short: as §1

[15] = tested on: morningglory; experiment: Test B pre/postemergence morningglory; format: in vivo, Ipomoea hederacea
In short: as §1

[16] = tested on: blackgrass; experiment: Test B pre/postemergence blackgrass; format: in vivo, Alopecurus myosuroides
In short: as §1

[17] = Postemergence, Rate 31 g/ha, visual rating, scale 0 to 10 (0 no effect, 10 complete control)
[18] = Postemergence, Rate 62 g/ha, scale of 0 to 10, 0 is no effect, 10 is complete control
[19] = Postemergence, Rate 125 g/ha, scale 0 to 10, 0 is no effect, 10 is complete control
[20] = Preemergence, Rate 31 g/ha, visual rating, scale 0 to 10 (0 no effect, 10 complete control)
[21] = Preemergence, Rate 62 g/ha, scale 0 to 10 (0 no effect, 10 complete control)
[22] = Preemergence, Rate 125 g/ha, scale 0 to 10, 0 is no effect, 10 is complete control
[23] = Rate 250 g/ha, Postemergence, scale of 0 to 10 where 0 is no effect and 10 is complete control

CC(C)N(C(=O)n1oc(=O)n(C[Si](C)(C)C)c1=O)c1ccc(Cl)cc1 [Compound 548]
Cocklebur plant response rating [1, 17]: 0
Cocklebur plant response rating [1, 18]: 0
Cocklebur plant response rating [1, 19]: 0
Cocklebur plant response rating [1, 20]: 0
Cocklebur plant response rating [1, 21]: 0
Cocklebur plant response rating [1, 22]: 0
Cocklebur plant response rating (0 to 10 scale) ([1]; Preemergence, Rate 250 g/ha): 0
Plant response rating, Cocklebur [1, 23]: 0
Sugarbeets plant response rating [2, 17]: 0
Sugarbeets plant response rating [2, 18]: 0
Sugarbeets plant response rating [2, 19]: 0
Sugarbeets plant response rating [2, 21]: 0
Sugarbeets plant response rating [2, 22]: 0
Sugarbeets plant response rating (0 to 10 scale) ([2]; Preemergence, Rate 250 g/ha): 2
Plant response rating, Sugarbeets [2, 23]: 3
Soybean plant response rating [3, 17]: 1
Soybean plant response rating [3, 18]: 2
Soybean plant response rating [3, 19]: 2
Soybean plant response rating [3, 21]: 0
Soybean plant response rating [3, 22]: 0
Soybean plant response rating (0 to 10 scale) ([3]; Preemergence, Rate 250 g/ha): 0
Plant response rating, Soybean [3, 23]: 2
Corn plant response rating [4, 17]: 0
Corn plant response rating [4, 18]: 0
Corn plant response rating [4, 19]: 0
Corn plant response rating [4, 20]: 0
Corn plant response rating [4, 21]: 0
Corn plant response rating [4, 22]: 0
Corn plant response rating (0 to 10 scale) ([4]; Preemergence, Rate 250 g/ha): 0
Plant response rating, Corn [4, 23]: 0
Bedstraw plant response rating [5, 17]: 0
Bedstraw plant response rating [5, 18]: 0
Bedstraw plant response rating [5, 19]: 4
Bedstraw plant response rating [5, 20]: 9
Bedstraw plant response rating [5, 21]: 8
Bedstraw plant response rating [5, 22]: 10
Bedstraw plant response rating (0 to 10 scale) ([5]; Preemergence, Rate 250 g/ha): 10
Plant response rating, Bedstraw [5, 23]: 9
Wheat plant response rating [6, 17]: 0
Wheat plant response rating [6, 18]: 0
Wheat plant response rating [6, 19]: 0
Wheat plant response rating [6, 21]: 0
Wheat plant response rating [6, 22]: 0
Wheat plant response rating (0 to 10 scale) ([6]; Preemergence, Rate 250 g/ha): 0
Plant response rating, Wheat [6, 23]: 2
Nutsedge plant response rating [7, 17]: 0
Nutsedge plant response rating [7, 19]: 0
Nutsedge plant response rating [7, 21]: 0
Nutsedge plant response rating [7, 22]: 0
Nutsedge plant response rating (0 to 10 scale) ([7]; Preemergence, Rate 250 g/ha): 0
Plant response rating, Nutsedge [7, 23]: 0
Redroot pigweed plant response rating [8, 17]: 0
Redroot pigweed plant response rating [8, 18]: 0
Redroot pigweed plant response rating [8, 19]: 0
Redroot pigweed plant response rating [8, 21]: 0
Redroot pigweed plant response rating [8, 22]: 0
Redroot pigweed plant response rating (0 to 10 scale) ([8]; Preemergence, Rate 250 g/ha): 2
Plant response rating, Redroot pigweed [8, 23]: 2
Rape plant response rating [9, 17]: 0
Rape plant response rating [9, 19]: 0
Rape plant response rating [9, 21]: 0
Rape plant response rating [9, 22]: 0
Rape plant response rating (0 to 10 scale) ([9]; Preemergence, Rate 250 g/ha): 2
Plant response rating, Rape [9, 23]: 7
Velvetleaf plant response rating [10, 17]: 0
Velvetleaf plant response rating [10, 18]: 0
Velvetleaf plant response rating [10, 19]: 0
Velvetleaf plant response rating [10, 21]: 0
Velvetleaf plant response rating [10, 22]: 0
Velvetleaf plant response rating (0 to 10 scale) ([10]; Preemergence, Rate 250 g/ha): 0
Plant response rating, Velvetleaf [10, 23]: 0
Giant foxtail plant response rating [11, 17]: 0
Giant foxtail plant response rating [11, 18]: 0
Giant foxtail plant response rating [11, 19]: 0
Giant foxtail plant response rating [11, 20]: 9
Giant foxtail plant response rating [11, 21]: 9
Giant foxtail plant response rating [11, 22]: 9
Giant foxtail plant response rating (0 to 10 scale) ([11]; Preemergence, Rate 250 g/ha): 10
Plant response rating, Giant foxtail [11, 23]: 0
B. signalgrass plant response rating [12, 17]: 0
B. signalgrass plant response rating [12, 18]: 0
B. signalgrass plant response rating [12, 19]: 0
B. signalgrass plant response rating [12, 20]: 0
B. signalgrass plant response rating [12, 21]: 0
B. signalgrass plant response rating [12, 22]: 2
B. signalgrass plant response rating (0 to 10 scale, 0 is no effect, 10 is complete control) ([12]; Preemergence, Rate 250 g/ha): 3
Plant response rating, B. signalgrass [12, 23]: 0
Crabgrass plant response rating [13, 17]: 0
Crabgrass plant response rating [13, 19]: 5
Crabgrass plant response rating [13, 20]: 4
Crabgrass plant response rating [13, 21]: 9
Crabgrass plant response rating [13, 22]: 9
Crabgrass plant response rating (0 to 10 scale) ([13]; Preemergence, Rate 250 g/ha): 10
Wild oats plant response rating [14, 17]: 0
Wild oats plant response rating [14, 18]: 0
Wild oats plant response rating [14, 19]: 0
Wild oats plant response rating [14, 21]: 0
Wild oats plant response rating [14, 22]: 0
Wild oats plant response rating (0 to 10 scale) ([14]; Preemergence, Rate 250 g/ha): 2
Plant response rating, Wild oats [14, 23]: 0
Morningglory plant response rating [15, 17]: 1
Morningglory plant response rating [15, 18]: 5
Morningglory plant response rating [15, 21]: 0
Morningglory plant response rating [15, 22]: 0
Morningglory plant response rating (0 to 10 scale) ([15]; Preemergence, Rate 250 g/ha): 0
Plant response rating, Morningglory [15, 23]: 8
Blackgrass plant response rating [16, 17]: 0
Blackgrass plant response rating [16, 18]: 0
Blackgrass plant response rating [16, 19]: 0
Blackgrass plant response rating [16, 20]: 0
Blackgrass plant response rating [16, 21]: 0
Blackgrass plant response rating [16, 22]: 3
Blackgrass plant response rating (0 to 10 scale) ([16]; Preemergence, Rate 250 g/ha): 3
Plant response rating, Blackgrass [16, 23]: 3
